Laboratory results taken from patent US20050008695A1, “Compositions and methods for delivering a biologically active agent” (Control Delivery Systems, Inc., priority 2003, published 2005).

How the values were obtained:
[1] = Hydrolysis rate (half-life) in buffer, pH 7.4; assay type: physicochemical
Source text: (§1) Hydrolysis Rate (half-life t½)
(§2) Hydrolysis Rate (half life t½)

[2] = Hydrolysis rate (half-life) in human plasma; assay type: in vitro ADME
Source text: as §1, §2

[3] = Aqueous solubility compared with constituent drugs; assay type: physicochemical; details: qualitative comparison with the unlinked drugs
[4] = Lipophilicity compared with constituent drug; assay type: physicochemical; details: qualitative comparison
[5] = not told
[6] = read-out: Hydrolysis Rate (half-life t½) In Buffer, pH7.4 (converted)
[7] = read-out: Hydrolysis Rate (half-life t½) In Human Plasma
[8] = read-out: Hydrolysis Rate (half life t½) In Human Plasma (converted)

Row | Structure (SMILES) | half-life [2, 7] | Lipophilicity relative to constituent drug [4] | half-life [1, 6] | Aqueous / water solubility relative to constituent drug(s) [3] | half-life [2, 8] | further results
1 | O=C(Cc1ccccc1Nc1c(Cl)cccc1Cl)OCc1oc(=O)oc1COC(=O)Cc1ccccc1Nc1c(Cl)cccc1Cl [Diclofenac Dimer] | 0.1 h | – | 25 h | – | – | –
2 | CC1(C)O[C@@H]2CC3C4C[C@H](F)C5=CC(=O)C=CC5(C)[C@@]4(F)CCC3(C)[C@]2(C(=O)COC(=O)Cc2ccccc2Nc2c(Cl)cccc2Cl)O1 (stereo partly shown) [Diclofenac-Fluocinolone Acetonide] | – | – | 15 h | lower solubility under aqueous conditions than either of the constituent drugs | 168 h | –
3 | CC1COc2c(N3CCN(C)CC3)c(F)cc3c(=O)c(C(=O)OCCOCCOC(=O)Cc4ccccc4Nc4c(Cl)cccc4Cl)cn1c23 (stereo not shown) [Diclofenac-Ofloxacin] | – | more lipophilic than ofloxacin alone | – | – | 6.5 h | Hydrolysis Rate (half life t½) In Buffer, pH7.4 ([1]; given in words, no number): days
4 | O=C(Cc1ccccc1Nc1c(Cl)cccc1Cl)OCCOCCOCCOCCO [Diclofenac-PEG4] | 0.167 h | more lipophilic than the ionized form | – | higher water solubility than unionized diclofenac | – | half-life ([1]; read-out: Hydrolysis Rate (half life t½) In Buffer, pH7.4 (converted)): 168 h
5 | O=C(O)Cc1ccccc1Nc1c(Cl)cccc1Cl.O=C(O)c1cn(C2CC2)c2cc(N3CCNCC3)c(F)cc2c1=O [diclofenac-ciprofloxacin codrug] | – | – | – | – | – | Permeation [5]: enhanced permeation
